Data: the NIST ThermoML archive (doi:10.1016/j.fluid.2018.05.031)
± gives the expanded uncertainty stated by the source.

Settings: Liquid; Ebulliometric method (Recirculating still)

## CO [methanol]
  Normal boiling temperature: 64.50 ± 0.2 °C

## COC(C)=O [methyl ethanoate]
  Normal boiling temperature: 56.90 ± 0.2 °C
